The values below come from patent publication US6750177B2, “Herbicide combination with acylated aminophenylsulfonylureas” (priority 2002, dated 2004).

Read-outs that look alike come from different tables or passages of the source.

What all share (type): in vivo
One series deals with Setaria spp. The series can be described thus: Herbicidal action (field trials), Setaria spp. Particulars: field trial. As to the method: (§1) The seeds or rhizome pieces of typical harmful plants were planted and grown under natural field conditions. Before the harmful plants had emerged or after the harmful plants had emerged, they were treated, as a rule at the 2- to 8-leaf stage, with various dosages of the compositions according to the invention at a water application rate of 100 to 400 I/ha (converted).
(§2) After the treatment (approx. 4-6 weeks after application), the herbidical activity of the active ingredients or active ingredient mixtures was scored visually by comparing the treated plots with the untreated control plots. Damage and development of all aerial parts of the plants was recorded. Scoring was done on a percentage scale (100% action=all plants dead; 50% action=50% of the plants and green plant parts dead; 0% action=no discernible action=like control plot). The score figures of in each case 4 plots was averaged.
(§3) The results are shown in the tables which follow, the action when using active ingredients (A+B) and (C) independently being stated in brackets.

For another series, the system named is Maize. The method, then: as §1, §2, §3
The test system of a further series is Sorghum verticillata. The series can be described thus: Herbicidal action (field trials), Sorghum verticillata. Particulars: 60 g As/ha, field trial. As to the method: as §1, §2, §3
The subject of a further series is Polygonum convolvulus. The series can be described thus: Herbicidal action (field trials), Polygonum convolvulus. Particulars: Fallopia convolvulus, field trial. The method, then:
as §1, §2, §3

As for `COc1cc(OC)nc(NC(=O)NS(=O)(=O)c2c(C(=O)O)c(Cl)nn2C)n1` [halosulfuron (C40), 3-chloro-5-(4,6-dimethoxypyrimidin-2-ylcarbamoylsulfamoyl)-1-methylpyrazole-4-carboxylic acid], the inhibition at 36 g/ha in the series on Setaria spp. (36 g As/ha) was determined as 0%. Further, the Maize % damage in the series on Maize (36 g As/ha, field trial (table part with Setaria spp.)) is reported as 3%.

As for `COc1nc(C)nc(NC(=O)NS(=O)(=O)c2ccccc2CCC(F)(F)F)n1` [prosulfuron (C42), 1-(4-methoxy-6-methyl-1,3,5-triazin-2-yl)-3-[2-(3,3,3-trifluoropropyl)phenylsulfonyl]urea], in the series with Setaria spp. (40 g As/ha), the inhibition at 40 g/ha came to 15%. For the same molecule, the Maize % damage in the series on Maize (40 g As/ha, field trial (table part with Setaria spp.)) is given as 7%.

`COc1cc(OC)nc(NC(=O)NS(=O)(=O)c2ncccc2C(=O)N(C)C)n1` [nicosulfuron (C15), 2-(4,6-dimethoxypyrimidin-2-yl)-3-(3-dimethylcarbamoyl-2-pyridylsulfonyl)urea]: the inhibition at 60 g/ha with Sorghum verticillata is 74%. This molecule displayed a Maize % damage in the series on Maize (60 g As/ha, field trial (table part with Sorghum verticillata)) of 0%.

For `COc1c(Cl)ccc(Cl)c1C(=O)O` [dicamba (C20), 3,6-dichloro-o-anisic acid], the inhibition at 60 g/ha in the series with Polygonum convolvulus (60 g As/ha) came out at 35%. In the series on Maize (60 g As/ha, field trial (table part with Polygonum convolvulus)), the Maize % damage came out at 0%.

In the series with Polygonum convolvulus (240 g As/ha), `N#Cc1cc(Br)c(O)c(Br)c1` [bromoxynil (C33), 3,5-dibromo-4-hydroxybenzonitrile] yielded an inhibition at 240 g/ha of 40%. In addition, in the series on Maize (240 g As/ha, field trial (table part with Polygonum convolvulus)), the Maize % damage is listed as 2%.

The term inhibition denotes the share of the control response that was lost under treatment.
